Read-outs that look alike come from different tables or passages of the source.
Experiments:
[1] = Distribution coefficient determination, D7.4 (1-octanol / K2HPO4 buffer); format: physicochemical; conditions: 1-octanol / K2HPO4 buffer 50 mM pH 7.4
Procedure: K2HPO4 buffer (50 mM, pH=7.4) and 1-octanol were used as the aqueous phase and the organic phase, respectively. The K2HPO4 buffer and 1-octanol were mixed, and pre-saturated with each other before use.
In a typical experiment, an aqueous solution of Apo6995 (3-hydroxy-2-methyl-1-(2,2,2-trifluoroethyl)pyridin-4(1H)-one) was prepared by weighing out 3 mg of the compound into a 10-mL test-tube. It was then mixed with K2HPO4 buffer (2 mL) and sonicated for 30 minutes with frequent vortexing. The solution was then filtered through HPLC syringe filter (4 mm PVDF syringe filter 0.45 μM) to obtain the aqueous solution.
One mL of this aqueous solution was pipetted out into another 10-mL test-tube and mixed with 1 mL of 1-octanol. The mixture was then vortexed for 1 hour. The solution was centrifuged at 2000 rpm for 10 minutes. A small amount of the lower aqueous layer was carefully pipetted out and analyzed by HPLC to obtain the peak height (HF). The distribution coefficient, D7.4, was calculated using the following equation: D7.4=(HI−HF)/HF.

[2] = system: human neuroblastoma MC-65 cells; test: cells; conditions: for EC100 / minimal effective concentration: Homo sapiens, MC65, 48 h; for EC100: read-out: EC100 (maximum effective concentration); for minimal effective concentration: read-out: TH (threshold protective concentration); for CC2 (cytotoxic concentration): MC-65, cultured without tetracycline; for CC2 (cytotoxic concentration) / CC1 (cytotoxic concentration): viability below 80%; for CC1 (cytotoxic concentration): MC-65, presence of TET
Procedure: In this assay, human neuroblastoma cells (MC-65 cells) are genetically engineered to conditionally express amyloid β peptide (Aβ). The Aβ production is suppressed by tetracycline (TET+) presence in culture medium, and its production is activated when TET is withdrawn (TET−). The activation of Aβ production results in cell death “MC-65 suicide”.
Protective effect of compounds against edogenously produced amyloid beta (Aβ) was assessed in human neuroblastoma MC-65 cells. MC-65 cells have been stably transformed to conditionally express high levels of a partial amyloid precursor (AP) fusion protein (Bryce Sopher et al., Brain Res Mol Brain Res. 1994, 207-17.). This protein is further proteolitically processed in the cells to form a set of AP-derived Aβ peptides. […] Activity of the promoter is tightly regulated by the presence of the antibiotic tetracycline (TET) in the culture medium. In the presence of TET (TET+), the promoter is in the basal state and no amyloid beta peptide is synthesized. In the absence of TET (TET−) the promoter is in induced state, resulting in the accumulation of Aβ peptides in the cells, degenerative changes in cell morphology and decreased survival.
Transfected human neuroblastoma cells (MC-65) were cultured in DMEM (ATCC) supplemented with non-essential amino acids and 10% FBS (VWR) in the presence of TET (1 μg/mL). For the experiment, the cells were plated at 35,000 cells/cm^2 and grown for 1 day in the regular culture media prior to compound addition. On the day of the assay, culture supernatant was removed from the wells and cells were thoroughly washed once with the compound incubation matrix containing no FBS and no TET. MC-65 cells were treated with a test compound at pre-determined range of concentrations in a basal medium containing no FBS and in the absence or presence of 1 μg/mL TET for approximately 48 h. Cell viability was then measured using the MTT method.
For data analysis, cell viabilities relative to the control not treated with a test compound and maintained in the presence of TET were plotted against the compound concentration. […] Cytotoxicity of the test compound was assessed in the cells maintained in the presence of TET.

[3] = Oral cassette dosing PK/BBB studies; format: in vivo, male Sprague-Dawley rats; conditions: oral cassette dosing
Procedure: In-vivo pharmacokinetic (PK) and blood brain barrier (BBB) studies were conducted in male Sprague-Dawley rats using cassette dosing via oral administration. […] No. 15, pp. 652-658.

[4] = system: SH-SY5Y human neuroblastoma cells; conditions: for CC2 (cytotoxic concentration): H2O2-treated cells, viability below 80%; for CC1 (cytotoxic concentration): absence of H2O2, viability below 80%
Excerpt: Hydrogen peroxide (H2O2) is a major ROS (reactive oxidative species), which causes oxidative stress, and can induce apoptosis in many different cell types. One of the CNS drug design strategies is to use compounds with antioxidant properties as a possible treatment of both acute and chronic neurodegenerative diseases (Kang et al. Bioorganic & Medicinal Chemistry Letters, 2004, 14, 2261-2264). This involves testing the compounds of this invention for their protective effect against oxidative stress-induced cell death in SH-SY5Y human neuroblastoma cells. SH-SY5Y human neuroblastoma cells were cultured in DMEM (ATCC)/F12 (Cellgro) with 10% FBS. The cells were plated at 30,000 cells/cm^2 and grown for 1 day in the regular culture media prior to compound addition. Cells were routinely treated with the test compound, at a pre-determined range of concentrations, in the presence or absence of 50 μM hydrogen peroxide in a basal medium containing no FBS for 16-22 h. Cell viability was then measured using the routine MTT method (Mosmann, T., Rapid Colorimetric Assay for Cellular Growth and Survival: Application to Proliferation and Cytotoxicity Assays”. J. Immunol. Meth. 1983, 65, 55-63).
For data analysis, cell viability relative to control not treated with either H2O2 or the test compound, was plotted against the compound concentration. […] Cytotoxicity of the test compound was assessed in the absence of hydrogen peroxide.

[5] = Benzoic acid hydroxylation assay; conditions: benzoic acid 1 mM, H2O2 6 mM, FeCl3 30 μM, chelator 30 μM, pH 7.4, up to 81 h
Excerpt: Benzoic acid is a hydroxyl radical scavenger and reacts with hydroxyl radical to give 2-hydroxy, 3-hydroxy and 4-hydroxybenzoic acids. The benzoic acid hydroxylation assay is a chemical assay designed to detect damage caused by hydroxyl radical (Dean and Nicholson, Free Radical Research 1994, vol 20, 83-101). For example, deferiprone suppresses the formation of hydroxybenzoic acids in the presence of iron salts and hydrogen peroxide, while EDTA and iron salts allow such hydroxylation reactions to take place.
This screening assay involves the use of iron salt, benzoic acid, hydrogen peroxide and the chelator and measures the ability of the chelator to inhibit the formation of hydroxybenzoate as an indicator to prevent hydroxyl radical formation in living system.
Briefly, this procedure is based on the ability of hydroxyl radicals to hydroxylate benzoate to give 2-, 3- and 4-hydroxylated benzoic acid products. Benzoic acid (1 mM) is incubated over time up to 81 h at room temperature in the dark in 10 mM phosphate buffer (pH 7.4) with 6 mM hydrogen peroxide, ferric chloride (30 μM) and the Fe chelator (30 μM). HPLC is the method of choice used to monitor and quantify the amount of 2-, 3- and 4-hydroxylated products formed over time in the reaction mixture, and can be verified against authentic benzoic acid and its hydroxylated products via their respective retention times and areas under curve. In addition, several controls are used: (i) a control without added Fe stock solution and Fe chelator; (ii) a control without added Fe chelator; (iii) EDTA as positive control; and (iv) deferiprone as negative control. The Fe-EDTA system is a hydroxyl radical generator and is known to promote hydroxylation of benzoic acid.

[6] = Pharmacokinetics following oral administration to rats; format: in vivo, male Sprague Dawley rats; conditions: rat, oral 50 mg/kg in 0.5% CMC; for Brain AUC_D_obs / Brain Cmax_D / Plasma AUC_D_obs / Plasma Cmax_D: dose-normalized
Procedure: Adult male Sprague Dawley rats (275-325 g, Charles River Laboratories, Saint Constant, Quebec) were orally dosed with 50 mg/kg of test compound (Apo7323, Apo7433, Apo7435 or Apo7448) suspended in 0.5% carboxymethylcellulose (CMC) in water. For each test compound, samples were obtained from the plasma and brain of three animals per time point, at 0 (dosed with 0.5% CMC), 0.25, 0.5, 1, 2, 4, 8 and 12 h following administration. The concentration of the compound in rat plasma and brain samples was determined by HPLC-UV. Pharmacokinetic parameters were computed using the PKPlus Module in GastroPlus® ver. 8.0 (Simulations Plus Inc., Lancaster, Calif.). Calculation method: linear trapezoidal with linear interpolation.

[7] = Cyclic voltammetry of iron complexes; format: physicochemical; conditions: for E1/2 vs. Ag/AgCl / E1/2 vs. NHE / ΔE / Eox / Ered: 0.1M aqueous NaCl; for E1/2 vs. Ag/AgCl / E1/2 vs. NHE / ΔE: pH 7.4; for Eox / Ered: pH 7.4, vs. Ag/AgCl; for redox potential E1/2 (vs. NHE): pH 7.4, as quoted
[8] = cited from earlier work

Compound: CCc1c(O)c(=O)ccn1CC(F)(F)F [Apo7030, 2-ethyl-3-hydroxy-1-(2,2,2-trifluoroethyl)pyridin-4(1H)-one]
- D7.4 [1]: 5.93
- logD ([1]; read-out: Log D7.4): 0.77
- EC100 [2]: 20 µM
- minimal effective concentration [2]: 1 µM
- CC2 (cytotoxic concentration) [2]: 40 µM
- CC1 (cytotoxic concentration) [2]: 40 µM
- AUC brain* (cal.) ([3]; rats, normalized to 1 mg/kg, value marked (cal.)): 0.59 cal·µg·h/mL
- Kp ([3]; rat, brain and plasma, male Sprague-Dawley rats, read-out: AUC brain/AUC plasma): 1
- AUC ([3]; rat, plasma, male Sprague-Dawley rats, AUC normalized to 1 mg/kg dose): 590 ng·h/mL
- CC2 (cytotoxic concentration) [4]: >640 µM
- CC1 (cytotoxic concentration) [4]: 640 µM

Compound: CN(C)c1c(O)c(=O)cc(CC(F)(F)F)n1C [Apo7077, 2-(dimethylamino)-3-hydroxy-1-methyl-6-(2,2,2-trifluoroethyl)pyridin-4(1H)-one]
- EC100 [2]: 10 µM
- minimal effective concentration [2]: 1 µM
- CC2 (cytotoxic concentration) [2]: 80 µM
- CC1 (cytotoxic concentration) [2]: 80 µM
- hydroxylation of benzoic acid by Fe chelate [5]: do not promote the hydroxylation of benzoic acid

Compound: Cc1[nH]cc(C(N2CCOCC2)C(F)(F)F)c(=O)c1O (centres unmarked) [Apo7433, 3-hydroxy-2-methyl-5-(2,2,2-trifluoro-1-morpholinoethyl)pyridin-4(1H)-one]
- CL [6]: 62.7 mL/min/kg
- Brain AUC_D_obs [6]: 0.039 kg·µg·h/mL/mg
- Brain Cmax_D [6]: 0.400 kg·µg/mL/mg
- Plasma AUC_D_obs [6]: 0.860 kg·µg·h/mL/mg
- Plasma Cmax_D [6]: 0.396 kg·µg/mL/mg
- EC100 [2]: 10 µM
- minimal effective concentration [2]: 1 µM
- CC2 (cytotoxic concentration) [2]: 40 µM
- CC1 (cytotoxic concentration) [2]: 40 µM
- CC2 (cytotoxic concentration) [4]: 320 µM
- CC1 (cytotoxic concentration) [4]: 320 µM

Compound: Cn1ccc(=O)c(O)c1C(N1CCOCC1)C(F)(F)F (centres unmarked) [Apo7448, 3-hydroxy-1-methyl-2-(2,2,2-trifluoro-1-morpholinoethyl)pyridin-4(1H)-one]
- CL [6]: 52 mL/min/kg
- Brain AUC_D_obs [6]: 0.486 kg·µg·h/mL/mg
- Brain Cmax_D [6]: 0.178 kg·µg/mL/mg
- Plasma AUC_D_obs [6]: 1.07 kg·µg·h/mL/mg
- Plasma Cmax_D [6]: 0.334 kg·µg/mL/mg
- EC100 [2]: 20 µM
- minimal effective concentration [2]: 1 µM
- CC2 (cytotoxic concentration) [2]: 40 µM
- CC1 (cytotoxic concentration) [2]: 40 µM
- CC2 (cytotoxic concentration) [4]: 320 µM
- CC1 (cytotoxic concentration) [4]: 80 µM

Compound: Cc1c([O-])c(=O)ccn1C.Cc1c([O-])c(=O)ccn1C.Cc1c([O-])c(=O)ccn1C.[Fe+3] [Fe(L1)3]
- E1/2 vs. Ag/AgCl [7]: −797 mV
- E1/2 vs. NHE [7]: −577 mV
- ΔE [7]: 89 mV
- Eox [7]: −752 mV
- Ered [7]: −841 mV
- redox potential E1/2 (vs. NHE) [7]: −628 my

Compound: CC(=O)N([O-])CCCCCNC(=O)CCC(=O)N([O-])CCCCCNC(=O)CCC(=O)N([O-])CCCCCN.[Fe+3] [FeDFO]
- E1/2 literature value ([8]; versus Ag/AgCl, Crumbliss et al. 2003): −688 mV
- E1/2 vs. Ag/AgCl [7]: −698 mV
- E1/2 vs. NHE [7]: −478 mV
- ΔE [7]: 112 mV
- Eox [7]: −642 mV
- Ered [7]: −754 mV
- redox potential E1/2 (vs. NHE) [7]: −480 my

Compound: Fe-transferrin: iron bound to the blood protein transferrin
- E1/2 vs. Ag/AgCl ([8]; background value): −720 my
- E1/2 vs. NHE ([8]; background value): −500 my

Reference: patent publication US9938240B2, “Fluorinated derivatives of 3-hydroxypyridin-4-ones” (Apotex Technologies Inc., priority 2009, dated 2018)
